Our source for the GI50 and TGI values is PubChem BioAssay (NCI).

What all share (experiment): growth of human tumour cells (NCI), 48 h
The test system of assay [1] is A549 NSCLC.
Assay [2] concerns ACHN renal.
The subject of assay [3] is BT-549 breast.
Assay [4] deals with DU-145 prostate.
The subject of assay [5] is HL-60(TB) leukemia.
The subject of assay [6] is HS 578T breast.
The test system of assay [7] is M14 melanoma.
For assay [8], the system named is OVCAR-3 ovarian.
Assay [9] deals with SK-OV-3 ovarian.
Assay [10] concerns UACC-62 melanoma.

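Test compounds were applied to cells in 96-well plates for 48 hours at 5 doses. The concentration for 50% growth inhibition is given as GI50. TGI is the concentration that stops growth completely.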

As for `O=S(=O)(NC1=NCCN1C(=S)SN1CCn2c1nsc2=S)c1ccccc1Cl`, the GI50 in [1] is 32.5 µM; in [2], 24.5 µM; in assay [3] it was 8 µM; in assay [4] it was 9.15 µM; in assay [5] it was 0.342 µM; in [6], 29.6 µM. Besides, the GI50 in assay [7] is 12.8 µM; in [8] it was 3.89 µM; in [9], 57 µM; in assay [10] it was 19.3 µM. Also, the TGI is > 100 µM in assay [1]; > 100 µM in assay [2]; 36 µM in [3]; 53.1 µM in assay [4]; 8.62 µM in assay [5]; > 100 µM in assay [6]. For the same molecule, the TGI was 27.1 µM in assay [7], 17.7 µM in assay [8], > 100 µM in assay [9] and 44.1 µM in [10].
As for `CCOC(=O)C(C(=O)OCC)C(=O)c1ccccc1C(=O)c1ccccc1`, the TGI in assay [1], in [2], in assay [3], in assay [4], in [5] and in assay [6] was > 100 µM throughout. Moreover, the TGI in assay [7], in [8], in [9] and in assay [10] was > 100 µM each time.
Turning to `Clc1ccc(CNc2nccc(-c3cnn4ncccc34)n2)cc1`, the GI50 in [1] is 7.66 µM; in [2] it was 5.95 µM; in assay [3], 6.4 µM; in [4], 8.73 µM; in assay [5], 8.69 µM; in assay [6], 7.78 µM. Also, the GI50 in assay [7] is 7.09 µM; in [8], 7.32 µM; in assay [9], 11.8 µM; in assay [10] it was 3.74 µM. The TGI was > 25 µM in assay [1]; > 25 µM in assay [2]; 14.7 µM in [3]; > 25 µM in assay [4]; > 22.3 µM in assay [5]; > 23.5 µM in [6]. The TGI in [7] was > 17 µM; in assay [8], 21.6 µM; in assay [9], > 25 µM; in [10], 8.73 µM.
Turning to `COc1ccc(Cn2cc3c(c2-c2cc(OC)c(OC)c(OC)c2)CCc2cnoc2-3)cc1N`, the GI50 in [1] is 0.0821 µM; in [2], 0.0731 µM; in assay [3] it was 0.173 µM; in assay [4], 0.0343 µM; in [5], 0.0268 µM; in assay [6], 0.0343 µM. Besides, the GI50 in [7] is 0.0507 µM; in assay [8], 0.026 µM; in [9], 0.0447 µM; in [10], 0.0447 µM. The TGI is > 100 µM in assay [1]; > 100 µM in [2]; > 100 µM in [3]; 0.355 µM in assay [4]; 0.184 µM in [5]; > 100 µM in assay [6]. The TGI is > 100 µM in assay [7], 0.0631 µM in assay [8], > 100 µM in [9] and > 86.9 µM in assay [10].
`NS(=O)(=O)c1ccc(-n2ncc3c(Nc4ccccc4)ncnc32)cc1`: the GI50 in assay [1] was 14.3 µM; in assay [2], 38.5 µM; in assay [3], 30.3 µM; in assay [4], 35.6 µM; in assay [5], 6.59 µM; in assay [6], 33.8 µM. In addition, the GI50 in assay [7] was 32.8 µM; in assay [8] it was 38.2 µM; in assay [9], 99.8 µM; in assay [10] it was 42.8 µM. Also, the TGI is > 100 µM in [1]; > 100 µM in assay [2]; 92.8 µM in assay [3]; > 100 µM in [4]; 92.7 µM in [5]; > 100 µM in assay [6]. In addition, the TGI in [7], in [8], in [9] and in assay [10] was > 100 µM each time.
For `COc1cccc(CCC(=O)c2cc3c(N)c(C(=O)Nc4cccc(Cl)c4C)sc3nc2C)c1`, the GI50 in assay [1] is 0.687 µM; in assay [2], 0.743 µM; in [3] it was 0.951 µM; in [4], 1.91 µM; in assay [5], 0.543 µM; in assay [6], 0.343 µM. Besides, the GI50 in assay [7] was 0.446 µM; in [8] it was 0.37 µM; in [9], 1.53 µM; in assay [10] it was 0.407 µM. The TGI in [1] is > 100 µM; in assay [2] it was > 100 µM; in [3] it was 99.6 µM; in assay [4] it was > 100 µM; in assay [5], > 100 µM; in [7], > 100 µM. Further, the TGI in [8] is 2.78 µM; in assay [9] it was > 75.6 µM; in assay [10], > 100 µM.
As for `COc1cc(C2CC(=O)Nc3c2ccc2ccccc32)cc(Br)c1OC` (stereo not drawn), the GI50 is 0.549 µM in [1]; 0.798 µM in assay [2]; 0.384 µM in assay [3]; 0.653 µM in assay [4]; 0.212 µM in [5]; 0.376 µM in [6]. Also, the GI50 in [7] was 0.308 µM; in [8], 0.309 µM; in [9], 0.507 µM; in assay [10], 0.54 µM. The TGI was > 49.7 µM in [1]; > 100 µM in [2]; 17.5 µM in assay [3]; > 38.2 µM in assay [4]; 0.462 µM in assay [5]; > 23.2 µM in assay [6]. The results for the TGI in assay [7], in assay [8] and in assay [9] were 2.7 µM, 0.809 µM and > 22.7 µM, respectively.
As to `Cc1ncc(C(=O)Nc2ccc(CN3CCN(C)CC3)c(C(F)(F)F)c2)cc1C#Cc1c(N)ncc2ccccc12`, the GI50 in assay [1] was 0.488 µM; in [2], 0.336 µM; in assay [3], 0.894 µM; in assay [4], 0.502 µM; in assay [5] it was 0.247 µM; in assay [6] it was 0.356 µM. Also, the GI50 in assay [7] was 0.0923 µM; in assay [8], 0.484 µM; in assay [9] it was 1.61 µM; in assay [10], 0.246 µM. Also, the TGI in assay [1] worked out at 1.03 µM; in [2] it was 0.732 µM; in [3], 1.96 µM; in assay [4], 0.997 µM; in assay [5] it was 0.817 µM; in assay [6], 1.26 µM. The TGI turned out to be 0.476 µM in assay [7], 1.04 µM in assay [8], 5.06 µM in [9] and 0.781 µM in [10].
